Measured values reported in the supplement of paper PMC10307832.

Experiments:
Experiment in all cases: relative viability (nuclei count vs DMSO), 5 days (fraction); higher = more cells survive
BAM7 + Alpelisib = compound: CCOC1=CC=CC=C1N=NC2=C(NN(C2=O)C3=NC(=CS3)C4=CC=CC=C4)C [BAM7] + Cc1nc(NC(=O)N2CCC[C@H]2C(N)=O)sc1-c1ccnc(C(C)(C)C(F)(F)F)c1 [Alpelisib] (partner 2 µM)
Outline: (§1)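 Each reported value is a median over duplicate plates. It expresses relative viability: treated-well nuclei count divided by vehicle-well nuclei count. Lung cancer cell lines in 1536-well plates were dosed by pin tool a day after seeding, alone with one drug or with a fixed anchor-drug dose plus five library-drug doses (not always all listed) in √10 steps, and nuclei were counted after 5 days.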

[1] = compound: CCn1c(-c2nonc2N)nc2c(C#CC(C)(C)O)ncc(OC[C@H]3CCCNC3)c21 + Cc1nc(NC(=O)N2CCC[C@H]2C(N)=O)sc1-c1ccnc(C(C)(C)C(F)(F)F)c1 [Alpelisib] (partner 2 µM)
Outline: as §1

BAM7 + Decitabine = compound: CCOC1=CC=CC=C1N=NC2=C(NN(C2=O)C3=NC(=CS3)C4=CC=CC=C4)C [BAM7] + Nc1ncn([C@H]2C[C@H](O)[C@@H](CO)O2)c(=O)n1 [Decitabine] (partner 2 µM)
Outline: as §1

[2] = compound: CCn1c(-c2nonc2N)nc2c(C#CC(C)(C)O)ncc(OC[C@H]3CCCNC3)c21 + CS(=O)(=O)CCNCc1ccc(-c2ccc3ncnc(Nc4ccc(OCc5cccc(F)c5)c(Cl)c4)c3c2)o1 [Lapatinib] (partner 2 µM)
Outline: as §1

Row | Cell Line | relative viability (BAM7 + Alpelisib; first compound 0.5 µM) | relative viability (BAM7 + Alpelisib; first compound 5 µM) | relative viability (BAM7 + Alpelisib; first compound 15.81 µM) | relative viability (BAM7 + Alpelisib; first compound 50 µM) | relative viability ([1]; first compound 0.01 µM) | relative viability ([1]; first compound 0.03162 µM) | relative viability ([1]; first compound 0.1 µM) | relative viability ([1]; first compound 0.3162 µM) | relative viability ([1]; first compound 1 µM) | relative viability (BAM7 + Decitabine; first compound 0.5 µM) | relative viability (BAM7 + Decitabine; first compound 5 µM) | relative viability (BAM7 + Decitabine; first compound 15.81 µM) | relative viability (BAM7 + Decitabine; first compound 50 µM) | relative viability ([2]; first compound 0.01 µM) | relative viability ([2]; first compound 0.03162 µM) | relative viability ([2]; first compound 0.1 µM) | relative viability ([2]; first compound 0.3162 µM) | relative viability ([2]; first compound 1 µM)
1 | HCC-366 | 0.403 | 0.318 | 0.324 | 0.322 | 0.362 | 0.427 | 0.293 | 0.475 | 0.386 | 0.325 | 0.327 | 0.319 | 0.313 | 0.967 | 1.02 | 0.953 | 1.03 | 1.09
2 | HCC-827 | 1.03 | 0.97 | 1.01 | 1 | 1.01 | 0.93 | 0.948 | 1 | 1.05 | 0.314 | 0.314 | 0.376 | 0.302 | 0.175 | 0.219 | 0.191 | 0.173 | 0.217
3 | HOP-62 | 0.921 | 0.826 | 0.901 | 0.797 | 0.966 | 1.12 | 0.819 | 0.951 | 1.13 | 0.191 | 0.256 | 0.226 | 0.255 | 1.11 | 1.05 | 1 | 0.993 | 0.87
4 | IA-LM | 0.67 | 0.648 | 0.659 | 0.994 | 0.728 | 0.733 | 0.987 | 0.654 | 0.613 | – | – | – | – | 0.713 | 0.922 | 0.887 | 0.532 | 0.289
5 | LC-2-ad | 0.998 | 0.893 | 0.746 | 0.855 | 0.898 | 0.973 | 0.925 | 0.823 | 0.565 | 0.786 | 0.774 | 0.751 | 0.689 | 0.993 | 1.01 | 0.906 | 0.975 | 0.977
6 | LCLC-97TM1 | 0.303 | 0.235 | 0.235 | 0.316 | – | 0.278 | 0.224 | 0.235 | 0.257 | 0.252 | 0.269 | – | 0.24 | – | 0.854 | 1.06 | 0.663 | 1.27
7 | LCLC-103H | 0.998 | 0.837 | 1.08 | 0.984 | 0.984 | 0.945 | 1 | 0.848 | 0.953 | 0.751 | 0.77 | 0.709 | 0.708 | – | – | – | – | –
8 | LK-2 | 1.14 | 1.78 | 1.16 | 0.874 | 1.24 | 1.27 | 0.984 | 0.916 | 1.01 | 0.352 | 0.335 | 0.347 | 0.326 | 0.998 | 1.01 | 0.668 | 0.697 | 0.926
9 | LOU-NH91 | 0.753 | 0.728 | 0.629 | 0.684 | 0.751 | 0.795 | 0.736 | 0.706 | 0.732 | 0.815 | 0.859 | 0.783 | 0.799 | 0.802 | 0.681 | 0.717 | 0.652 | 0.618
10 | LU99A | 0.588 | 0.489 | 0.532 | 0.597 | 0.586 | 0.558 | 0.538 | 0.504 | 0.47 | 0.81 | 0.95 | 0.933 | 0.876 | 0.874 | 1.07 | 0.869 | 0.865 | 0.818
11 | LXF-289 | 1.1 | 1.11 | 1.02 | 1.07 | 1.04 | 1.02 | 1.01 | 0.983 | 1.04 | 0.341 | 0.339 | 0.353 | 0.407 | 0.921 | 0.891 | 0.934 | 0.871 | 0.88
12 | NCI-H23 | 0.743 | 0.782 | 0.656 | 0.723 | 0.605 | 0.717 | 0.686 | 0.528 | 0.588 | 0.347 | 0.332 | 0.322 | 0.304 | 1.07 | 1.05 | 1.14 | 1.17 | 0.776
13 | NCI-H322M | 0.859 | 0.816 | 0.803 | 0.801 | 0.868 | 0.765 | 0.121 | 0.853 | 0.813 | 0.761 | 0.722 | 0.742 | 0.692 | 0.562 | 0.608 | 0.394 | 0.614 | 0.524
14 | NCI-H441 | 0.809 | 0.932 | 0.793 | 0.682 | 0.653 | 0.891 | 0.749 | 0.683 | 0.717 | 0.291 | 0.251 | 0.235 | 0.209 | – | – | – | – | –
15 | NCI-H522 | – | – | – | – | – | – | – | – | – | 0.729 | 0.638 | 0.687 | 0.671 | – | – | – | – | –
16 | NCI-H1299 | 1.06 | 1.1 | 1.03 | 0.992 | 1.05 | 1.06 | 1.05 | 1.03 | 0.968 | – | – | – | – | 0.927 | 0.967 | 0.998 | 0.947 | 0.982
17 | NCI-H1563 | 0.991 | 0.864 | 0.864 | 0.929 | 0.872 | 0.913 | 0.913 | 0.837 | 0.826 | – | – | – | – | 0.93 | 0.94 | 0.924 | 0.926 | 0.781
18 | NCI-H1648 | – | – | – | – | – | – | – | – | – | 0.395 | 0.642 | 0.432 | 0.404 | – | – | – | – | –
19 | NCI-H1650 | – | – | – | – | – | – | – | – | – | 0.39 | 0.409 | 0.431 | 0.38 | 0.758 | 0.864 | 0.708 | 0.725 | 0.578
20 | NCI-H1703 | 0.316 | 0.322 | 0.291 | 0.36 | 0.333 | 0.374 | 0.392 | 0.28 | 0.299 | – | – | – | – | 0.998 | 1.23 | 1.05 | 0.739 | 0.662
21 | NCI-H2228 | 0.863 | 0.879 | 0.763 | 0.607 | 0.68 | 0.854 | 0.622 | 0.651 | 0.569 | – | – | – | – | 1.27 | 1.09 | 1.02 | 0.755 | 0.729
22 | NCI-H2342 | – | – | – | – | – | – | – | – | – | 0.821 | 0.669 | 0.594 | 0.551 | – | – | – | – | –
23 | SW 900 | – | – | – | – | – | – | – | – | – | – | 0.465 | – | 0.494 | – | – | – | – | –
